Experimental data from US10130615B2, “Benzomorphan analogs and the use thereof” (priority 2014, dated 2018).

What was measured:
κ-opioid receptor [1] = target: T1, κ-opioid receptor (Homo sapiens, UniProt P41145); test: κ-opioid receptor [35S]GTPγS functional assay, HEK-293 or CHO cells; format: biochemical; design: expressed in transfected cells; host or cells: HEK-293; details: HEK-293 or CHO cells; for EC50: read-out: GTPγS κ EC50; for Emax: relative to U69,593
Method: (§1) Plates were incubated for 30 min at a temperature of about 25° C. with shaking.

μ-opioid receptor [2] = target: T2, μ-opioid receptor (Homo sapiens, UniProt P35372); test: biochemical; design: purchased Perkin Elmer, Shelton, Conn; host or cells: HEK-293 or CHO; details: HEK-293 or CHO cells; for EC50: read-out: GTPγS μ EC50; for Emax: relative to DAMGO, read-out: GTPγS μ Emax
T2 sequence (P35372 whole entry, species assumed): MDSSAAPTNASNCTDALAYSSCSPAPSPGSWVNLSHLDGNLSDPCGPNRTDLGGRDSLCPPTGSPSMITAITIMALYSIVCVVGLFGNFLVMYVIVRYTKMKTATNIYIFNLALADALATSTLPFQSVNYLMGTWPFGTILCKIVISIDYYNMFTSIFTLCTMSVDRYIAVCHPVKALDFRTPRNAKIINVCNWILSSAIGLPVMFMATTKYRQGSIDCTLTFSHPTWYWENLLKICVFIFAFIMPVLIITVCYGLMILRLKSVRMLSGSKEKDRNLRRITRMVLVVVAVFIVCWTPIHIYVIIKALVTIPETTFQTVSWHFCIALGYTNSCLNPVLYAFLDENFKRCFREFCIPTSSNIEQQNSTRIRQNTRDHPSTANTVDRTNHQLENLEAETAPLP

κ-opioid receptor [3] = target: T1, κ-opioid receptor; test: κ-opioid receptor radioligand binding assay ([3H]-U69,593); design: expressed in transfected cells; host or cells: HEK-293; details: HEK-293 or CHO cells; read-out: Ki (nM) Opioid Receptor κ
Method: κ-opioid Receptor Binding Assay Procedures: Membranes from recombinant HEK-293 cells expressing the human κ opioid receptor (κ) (cloned in house) were prepared by lysing cells in ice cold hypotonic buffer (2.5 mM MgCl2, 50 mM HEPES, pH 7.4) (10 mL/10 cm dish) followed by homogenization with a tissue grinder/Teflon pestle. Membranes were collected by centrifugation at 30,000×g for 15 min at 4° C. and pellets were resuspended in hypotonic buffer to a final concentration of 1-3 mg/mL. Protein concentrations were determined using the BioRad protein assay reagent with bovine serum albumen as standard. Aliquots of κ receptor membranes were stored at −80° C.
Radioligand dose displacement assays used 0.4 nM [^3H]-U69,593 (GE Healthcare, Piscataway, N.J.; 40 Ci/mmole) with 15 μg membrane protein (recombinant κ opioid receptor expressed in HEK 293 cells; in-house prep) in a final volume of 200 μl binding buffer (5% DMSO, 50 mM Trizma base, pH 7.4). Non-specific binding was determined in the presence of 10 μM unlabeled naloxone or U69,593. All reactions were performed in 96-well polypropylene plates for 1 hr at a temperature of about 25° C.

μ-opioid receptor [4] = target: T2, μ-opioid receptor; test: μ-opioid receptor radioligand binding assay ([3H]-diprenorphine); design: purchased Perkin Elmer, Shelton, Conn; host or cells: HEK-293 or CHO; details: HEK-293 or CHO cells; read-out: Ki (nM) Opioid Receptor μ
Method: μ-opioid Receptor Binding Assay Procedures: Radioligand dose-displacement binding assays for μ-opioid receptors used 0.3 nM [^3H]-diprenorphine (Perkin Elmer, Shelton, Conn.), with […] membrane protein/well in a final volume of 500 μl binding buffer (10 mM MgCl2, 1 mM EDTA, 5% DMSO, 50 mM HEPES, pH 7.4). Reactions were carried out in the absence or presence of increasing concentrations of unlabeled naloxone. All reactions were conducted in 96-deep well polypropylene plates for 2 hr at room temperature. […] The data were analyzed using the one-site competition curve fitting functions in GraphPad PRISM™ v. 3.0 or higher (San Diego, Calif.), or an in-house function for one-site competition curve-fitting.

κ-opioid receptor [5] = target: T1, κ-opioid receptor; test: κ-opioid receptor β-Arr2 activity response, U2OS cells; format: cell-based; design: expressed in transfected cells; host or cells: U-2 OS; details: U2OS cells; for EC50: read-out: β-Arr2 κ EC50
μ-opioid receptor [6] = target: T2, μ-opioid receptor; test: μ-opioid receptor GTPγS functional assay, U2OS cells
κ-opioid receptor [7] = target: T1, κ-opioid receptor; test: κ-opioid receptor GTPγS functional assay, U2OS cells; format: biochemical; design: expressed in transfected cells; host or cells: U-2 OS; details: U2OS cells; for EC50: read-out: GTPγS κ EC50
Method: as §1

T1 sequence (P41145 whole entry): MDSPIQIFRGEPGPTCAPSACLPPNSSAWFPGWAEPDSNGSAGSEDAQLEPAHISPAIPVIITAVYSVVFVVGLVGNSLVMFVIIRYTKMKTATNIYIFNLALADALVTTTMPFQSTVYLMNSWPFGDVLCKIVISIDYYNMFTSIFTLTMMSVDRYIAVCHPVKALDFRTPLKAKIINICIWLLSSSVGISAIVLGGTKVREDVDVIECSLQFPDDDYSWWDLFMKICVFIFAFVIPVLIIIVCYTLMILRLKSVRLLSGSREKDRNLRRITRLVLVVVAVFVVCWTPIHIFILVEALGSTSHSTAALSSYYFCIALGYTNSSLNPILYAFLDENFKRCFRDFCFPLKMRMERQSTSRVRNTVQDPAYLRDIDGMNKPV

SMILES: COc1ccc2c(c1)[C@]1(CCNC3(C(=O)O)CC3)CCN(CC3CC3)[C@H](C2)[C@@H]1C [Compound 34, 1-((2-((2R,6R,11R)-3-(cyclopropyl-methyl)-8-methoxy-11-methyl-2,3,4,5-tetrahydro-2,6-methanobenzo[d]azocin-6(1H)-yl)ethyl)amino)cyclopropane-1-carboxylic acid]
- EC50 (κ-opioid receptor [1]): 7900 ± 2010 nM
- Emax (κ-opioid receptor [1]): 81.3 ± 10.2%
- EC50 (μ-opioid receptor [2]): 2880 ± 310 nM
- Emax (μ-opioid receptor [2]): 70.3 ± 3.71%
- Ki (κ-opioid receptor [3]): 286 ± 2.93 nM
- Ki (μ-opioid receptor [4]): 1470 ± 177 nM

SMILES: COc1ccc2c(c1)[C@]1(CCNCC(=O)O)CCN(CC3CC3)[C@H](C2)[C@@H]1C [Compound 36, (2-((2R,6R,11R)-3-(cyclopropyl-methyl)-8-methoxy-11-methyl-2,3,4,5-tetrahydro-2,6-methanobenzo[d]azocin-6(1H)-yl)ethyl)glycine]
- EC50 (κ-opioid receptor [1]): 1980 ± 216 nM
- Emax (κ-opioid receptor [1]): 69 ± 6.24%
- EC50 (μ-opioid receptor [2]): 798 ± 24.1 nM
- Emax (μ-opioid receptor [2]): 39 ± 1.53%
- Ki (κ-opioid receptor [3]): 133 ± 22.9 nM
- Ki (μ-opioid receptor [4]): 1020 ± 51.3 nM

SMILES: COc1ccc2c(c1)[C@]1(CCNC(=O)CN)CCN(CC3CC3)[C@H](C2)[C@@H]1C [Compound 33, 2-amino-N-(2-((2R,6R,11R)-3-(cyclopropylmethyl)-8-methoxy-11-methyl-2,3,4,5-tetrahydro-2,6-methanobenzo[d]azocin-6(1H)-yl)ethyl)acetamide]
- EC50 (κ-opioid receptor [1]): 61.2 ± 20.1 nM
- Emax (κ-opioid receptor [1]): 113 ± 1%
- Emax (κ-opioid receptor [5]): 42 ± 4%
- EC50 (κ-opioid receptor [5]): 12.8 ± 4.1 nM
- EC50 (μ-opioid receptor [2]): 356 ± 111 nM
- Emax (μ-opioid receptor [2]): 92.7 ± 6.57%
- EC50 (μ-opioid receptor [6]): 1170 ± 247 nM
- Emax (μ-opioid receptor [6]; read-out: GTPγS μ Emax): 56 ± 3.06%
- Ki (κ-opioid receptor [3]): 1.04 ± 0.071 nM
- Ki (μ-opioid receptor [4]): 936 ± 189 nM
- Emax (κ-opioid receptor [7]): 108 ± 3.38%
- EC50 (κ-opioid receptor [7]): 4.93 ± 1.06 nM

SMILES: COc1ccc2c(c1)[C@@]1(CCOCc3ccccc3)CCN(CC3CC3)[C@@H](C2)[C@H]1C [Compound 44, (2S,6R,11S)-6-(2-(benzyloxy)ethyl)-3-(cyclopropylmethyl)-8-methoxy-11-methyl-1,2,3,4,5,6-hexahydro-2,6-methanobenzo[d]azocine]
- EC50 (κ-opioid receptor [1]): 854 ± 240 nM
- Emax (κ-opioid receptor [1]): 32 ± 0.58%
- Emax (κ-opioid receptor [5]): 102 ± 11.6%
- EC50 (κ-opioid receptor [5]): 10300 ± 1050 nM
- Ki (κ-opioid receptor [3]): 118 ± 8.52 nM
- Ki (μ-opioid receptor [4]): 1840 ± 222 nM
- Emax (κ-opioid receptor [7]): 79.3 ± 3.38%
- EC50 (κ-opioid receptor [7]): 327 ± 50.5 nM

SMILES: CC(C)[C@H](NCC[C@@]12CCN(CC3CC3)[C@@H](Cc3ccc(O)cc31)[C@H]2C)C(=O)O [Compound 42, (2-((2S,6S,11S)-3-(cyclopropylmethyl)-8-hydroxy-11-methyl-2,3,4,5-tetrahydro-2,6-methanobenzo[d]azocin-6(1H)-yl)ethyl)-L-valine]
- EC50 (μ-opioid receptor [2]): 2390 ± 230 nM
- Emax (μ-opioid receptor [2]): 56 ± 2.52%
- Ki (κ-opioid receptor [3]): 2620 ± 729 nM
- Ki (μ-opioid receptor [4]): 4610 ± 551 nM

SMILES: COc1ccc2c(c1)[C@]1(CCN[C@@H](C)C(=O)O)CCN(CC3CC3)[C@H](C2)[C@@H]1C [Compound 40, (2-((2R,6R,11R)-3-(cyclopropyl-methyl)-8-methoxy-11-methyl-2,3,4,5-tetrahydro-2,6-methanobenzo[d]azocin-6(1H)-yl)ethyl)-L-ananine]
- EC50 (κ-opioid receptor [1]): 7890 ± 1340 nM
- Emax (κ-opioid receptor [1]): 86.3 ± 7.54%
- EC50 (μ-opioid receptor [2]): 1660 ± 245 nM
- Emax (μ-opioid receptor [2]): 77.7 ± 6.12%
- Ki (κ-opioid receptor [3]): 248 ± 95.7 nM
- Ki (μ-opioid receptor [4]): 871 ± 211 nM
- Emax (κ-opioid receptor [7]): 115 ± 1.73%
- EC50 (κ-opioid receptor [7]): 542 ± 13.1 nM

SMILES: COC(=O)[C@@H](NCC[C@@]12CCN(CC3CC3)[C@@H](Cc3ccc(OC)cc31)[C@H]2C)C(C)C [Compound 37, methyl (2-((2S,6S,11S)-3-(cyclopropyl-methyl)-8-methoxy-11-methyl-2,3,4,5-tetrahydro-2,6-methanobenzo[d]azocin-6(1H)-yl)ethyl)-L-valinate]
- EC50 (μ-opioid receptor [2]): 9390 ± 820 nM
- Emax (μ-opioid receptor [2]): 19.3 ± 2.33%
- Ki (κ-opioid receptor [3]): 8990 ± 2060 nM
- Ki (μ-opioid receptor [4]): 13900 nM
